How the values were obtained:
[1] = test system: juvenile soft ticks (Ornithodoros moubata); assay: Guinea pig - efficacy against argaside tick; type: in vivo
In short: (§1)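 Guinea pigs given 5 mg/kg test compound orally (gavage) or s.c. in 10% DMF/emulsifier plus 90% water for injection, with local co-infestations of Ornithodoros moubata juveniles and Cimex lectularius at several post-treatment times. Engorged parasites scored dead/damaged about 24 h after collection; % inhibition versus pretreatment baseline by modified Schneider-Orelli formula.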

[2] = test system: Fly larvae I (Lucilia cuprina); assay: Fly larvae contact/feeding assay; details: 48 h, read-out: Inhibition of fly larvae development
Description: Fly larvae I (Lucilia cuprina) were grown in medium spiked with declining concentrations of a test compound (dissolved in a DMSO-emulsifier-deionized water mixture). Inhibition of fly larvae development (%) was assessed after approximately 48 hours of continuous exposure. The vitality of used parasites was confirmed in negative control groups (i.e., an untreated control and a solvent control).

[3] = test system: Copepodids (juvenile sea lice stage of Lepeophtheirus salmonis); assay: Juvenile sea lice contact assay; details: Lepeophtheirus salmonis, ~24 h, read-out: Sea lice inhibition (% of dead+damaged copepodids); for inhibition at 0.01 µM: 10 nM in seawater
Description: Copepodids (juvenile sea lice stage of Lepeophtheirus salmonis) were exposed to seawater spiked with declining concentrations of a test compound (dissolved in a DMSO sea-water mixture). Sea lice inhibition (% of dead+damaged copepodids) was assessed after approximately 24 hours of continuous exposure. The vitality of used parasites was confirmed in a negative (solvent) control group.

[4] = test system: Rhipicephalus microplus tick larvae; assay: Tick larvae contact assay; details: ~3 min immersion, assessed ~24 h after, read-out: Tick inhibition (% of damage+dead ticks)
Description: Tick larvae (Rhipicephalus microplus) were immersed for approximately 3 minutes in declining concentrations of a test compound (dissolved in a DMSO-emulsifier-deionized water mixture). Tick inhibition (% of damage+dead ticks per test concentration) was assessed approximately 24 hours after contact exposure. The vitality of used parasites was confirmed in negative control groups (i.e. an untreated control and a solvent control).

[5] = test system: bed bugs (Cimex lectularius); assay: Guinea pig - efficacy against bed bug; type: in vivo
In short: as §1

[6] = test system: Mobile stages of sea lice (pre-adults, adults of Lepeophtheirus salmonis); assay: Adult sea lice contact assay; details: pre-adults/adults, assessed after ~1 and 24 h, read-out: EC50 (sea lice inhibition, dead+damaged)
Description: Mobile stages of sea lice (i.e., pre-adults, adults of Lepeophtheirus salmonis) were exposed to seawater spiked with declining concentrations of a test compound (dissolved in a PEG sea-water mixture). Sea lice inhibition (% of dead+damaged sea lice) was assessed after approximately 1 and 24 hours of continuous exposure in comparison to a negative (solvent) control group.

Lepeophtheirus salmonis [7] = assay: Salmon - in vivo efficacy against sea lice using gavage administration; details: po, 168 h, read-out: therapeutic efficacy against (pre-)adult sea lice (% reduction vs control), salmon, 5 mg/kg once by gavage, day -28 infestation, counted day 7
[8] = test system: Adult fleas (Ctenocephalides felis); assay: Flea feeding assay; details: 1 ppm in blood, ~48 h membrane feeding, read-out: flea inhibition (% of dead+damaged fleas)
Description: Adult fleas (Ctenocephalides felis) of defined age were fed on artificial membranes with blood spiked with declining concentrations of a test compound (dissolved in a DMSO-emulsifier-blood mixture). After approximately 48 hours of continuous feeding, flea inhibition (i.e., % of dead+damaged fleas per test concentration) was assessed. The vitality of used parasites was confirmed in negative control groups (i.e., an untreated control and a solvent control).

Lepeophtheirus salmonis [9] = assay: Salmon - in vivo efficacy against sea lice using gavage administration; details: 5 mg/kg once by gavage, day -3 infestation, counted around day 28
Description: Salmon (Salmo solar) were treated once orally by gavage at a dose of 5 mg/kg bodyweight per fish (Day 0). As formulation DMSO 5%/fish oil 95% was used. Salmon of the negative control group received only the excipients of the formulation.
The fish were infested with Lepeophtheirus salmonis copepodids twice before treatment (i.e., around day −28 and day −3) and once after treatment (i.e., day 17).
Around day 28 (end of animal phase), fish were euthanized, and lice on each fish were classified ((pre-)adult or juvenile stage) and counted. […] Efficacy is expressed as a % reduction of sea lice in treated groups versus a control group, using the Abbott's formula.

[10] = 5 mg/kg subcutaneous, after 7 days
[11] = 5 mg/kg subcutaneous, after 10 days
[12] = 5 mg/kg subcutaneous, after 14 days
[13] = 5 mg/kg subcutaneous, after 17 days
[14] = 5 mg/kg, at least until Day 10, both administration routes (oral, subcutaneous)

Row | Structure (SMILES) | activity against tick nymphs (≥80% inhibition, killed+damaged) ([1]; 5 mg/kg oral, Day 0) | activity against tick nymphs (≥80% inhibition, killed+damaged) ([1]; 5 mg/kg oral, after 7 days) | activity against tick nymphs (≥80% inhibition, killed+damaged) ([1]; 5 mg/kg subcutaneous, Day 0) | activity against tick nymphs (≥80% inhibition, killed+damaged) [1, 10] | activity against tick nymphs (≥80% inhibition, killed+damaged) [1, 11] | inhibition at 100 ppm [2] [%] | inhibition at 49 µM [4] [%] | inhibition at 388 µM [4] [%] | inhibition at 100 ppm [4] [%] | activity against bed bugs (≥80% inhibition, killed+damaged) ([5]; 5 mg/kg oral, Day 0) | activity against bed bugs (≥80% inhibition, killed+damaged) ([5]; 5 mg/kg oral, after 7 days) | activity against bed bugs (≥80% inhibition, killed+damaged) ([5]; 5 mg/kg subcutaneous, Day 0) | activity against bed bugs (≥80% inhibition, killed+damaged) [5, 10] | activity against bed bugs (≥80% inhibition, killed+damaged) [5, 11] | EC50 [6] [nM] | inhibition in vivo at 5 mg/kg (Lepeophtheirus salmonis [7]) [%] | inhibition at 1 ppm [8] [%] | inhibition at 0.01 µM [3] [%] | therapeutic efficacy against juvenile sea lice (% reduction vs control) (Lepeophtheirus salmonis [9]) [%] | further results
1 | CN(C(=O)c1cc(NC(=O)[C@H]2[C@H](c3cc(Cl)cc(Cl)c3)C2(Cl)Cl)ccc1Cl)c1ccc(F)cc1 [Compound 51] | immediate activity | activity | immediate activity | activity | activity | 80 | 80 | 80 | 80 | immediate activity | activity | immediate activity | activity | activity | – | – | – | – | – | activity against tick nymphs (≥80% inhibition, killed+damaged) [1, 12]: activity; activity against tick nymphs (≥80% inhibition, killed+damaged) [1, 13]: activity; duration of efficacy, subcutaneous compared with oral administration ([1]; 5 mg/kg, ticks and bed bugs): longer duration of efficacy; inhibition at 0.1 µM ([3]; 100 nM in seawater): ≥ 80%; inhibition at 25 µM ([4]; 25 μM): ≥ 80%; activity against bed bugs (≥80% inhibition, killed+damaged) [5, 12]: activity; activity against bed bugs (≥80% inhibition, killed+damaged) [5, 13]: activity
2 | O=C(Nc1ncc(F)cc1F)c1cc(NC(=O)[C@H]2[C@H](c3ccc(Cl)c(Cl)c3)C2(Cl)Cl)ccc1Cl [Compound 86] | immediate activity | activity | immediate activity | activity | activity | 80 | – | – | 80 | immediate activity | activity | immediate activity | activity | activity | ≤ 10 | 100 | 80 | 100 | 100 | activity against tick nymphs (≥80% inhibition, killed+damaged) ([1]; 5 mg/kg oral, after 10 days): activity; effective to control ticks [1, 14]: 100%; activity against bed bugs (≥80% inhibition, killed+damaged) ([5]; 5 mg/kg oral, after 10 days): activity; effective to control bed bugs [5, 14]: 100%
3 | O=C(Nc1ncc(F)cc1F)c1cc(NC(=O)[C@H]2[C@H](c3ccc(F)c(Cl)c3)C2(Cl)Cl)ccc1Cl [Compound 89] | immediate activity | – | immediate activity | – | – | – | 80 | 80 | 80 | immediate activity | – | immediate activity | – | – | ≤ 10 | 100 | 80 | 100 | 100 | –

From patent US20240315993A1, “ANTIPARASITIC COMPOUNDS” (Intervet Inc., priority 2021, published 2024)
